Results as given in patent publication US3939263A, “Methods of combatting insects and acarina using oxygenated derivatives of S-(tert-bulythio)methyl O,O-diethyl phosphorodithioate and phosphorothioate” (priority 1974, dated 1976).

Legend:
Tarnished Plant Bug = test: Tarnished Plant Bug, treated cotton leaf, 2-day mortality; type: in vivo, Lygus Lineolaris (Palisot de Beauvois); settings: Lygus lineolaris, 48 h, 2 days, read-out: % Kill, Tarnished Plant Bug
Description: Tarnished Plant Bug -- Lygus Lineolaris (Palisot de Beauvois)
A cotton plant with two true leaves expanded is dipped for 3 seconds with agitation in a 35/65% water/acetone mixture containing 100 ppm. of test compound and set in the hood to dry. One leaf is removed and placed in an 8-ounce waxed cup containing a wet 2-inch dental wick and 10 adult tarnished plant bugs, and a clear plastic lid is snapped on. After 2 days at 80°F., 50% r.h., mortality counts are made.

Mexican Bean Beetle = test: Mexican Bean Beetle, dipped lima bean leaves; type: in vivo, Epilachna varivestis Mulsant; settings: Epilachna varivestis, read-out: % Kill, Mexican Bean Beetle
Source text: Mexican Bean Beetle -- Epilachna varivestis Mulsant
Sieva lima bean plants (two per pot) with primary leaves 3 to 4 inches long, are dipped in a 35/65% water/acetone mixture containing 100 ppm. of test compound and set in the hood to dry. One leaf is removed from a plant and placed in a 4-inch petri dish containing a moist filter paper on the bottom and 10 last-instar larvae (13 days from hatching). The day after treatment, another leaf is removed from the plant and fed to the larvae after removing the remains of the original leaf. Two days after treatment, the third leaf is fed to the larvae, this usually being the last needed. The fourth leaf is used on the third day after treatment if the larvae have not finished feeding. The test is now set aside and held until adults have emerged, usually in about nine days after treatment began. After emergence is complete, each dish is examined for dead larvae, pupae or adults; deformed pupae or adults; larval-pupal intermediates or pupal-adult intermediates; or any other interference with normal molting, transformation and emergence of pupae or adults.

Southern Corn Rootworm = test: Soil Insecticide test, Southern Corn Rootworm; type: in vivo, Diabrotica undecimpunctata howardi Barber; settings: 144 h, 6 days, read-out: % Kill, Soil Insecticide, Southern Corn Rootworm; for mortality at 1 ppm: 1 ppm in soil; for mortality at 10 ppm: 10 ppm in soil; for mortality at 100 ppm: 100 ppm in soil
Description: Southern Corn Rootworm -- Diabrotica undecimpunctata howardi Barber
[…] Twelve and one-half milliliters of Littleton silt loam soil and 1 milliliter of millet seed (food for larvae) are added, the jars capped and the contents thoroughly mixed about 2 minutes on a rotary tumbler. Each jar then receives 5 ml. of tap water and ten southern corn rootworm larvae (Diabrotica undecimpunctata howardi Barber) 6 to 8 days old. The jars are loosely capped and placed in the holding room at 26.7°C. and 60% r.h. with constant light. Mortality counts are made after 6 days. Corrected percent mortality data is recorded on standard forms.

Southern Armyworm = test: Soil Systemic Insecticide test on corn, Southern Armyworm; type: in vivo, Spodoptera eridania Cramer; settings: Spodoptera eridania, 48 h; 100 ppm in soil; corn foliage after three weeks; 2 days; read-out: % Kill, Systemic Insecticide, Southern Armyworm
Description: (§1) Soil Systemic Insecticide Tests
(§2) Corn and cotton seed (three seeds each) are planted in treated soil (containing about 100 ppm. of the compound). Thirty milliliters of treated soil are placed in a peat container 5 × 5 × 5.5 cm., and three seeds each of corn and cotton planted. The containers are filled with an additional 30 ml. of treated soil. The treatments are removed to the greenhouse maintained about 26°C. without supplementary light. Water is supplied as needed. After three weeks, foliage of the corn is clipped and placed in glass petri dishes (90 mm. × 10 mm.) with moist filter (9 cm. Whatman No. 1) paper and ten third-instar southern armyworm (Spodoptera eridania Cramer) larvae about 8 mm. long. The dishes are covered and placed in the holding room with constant light at 26.7°C. and 60% r.h. for 2 days, when mortality counts are made.

Cotton Boll Weevil = test: Soil Systemic Insecticide test on cotton, Cotton Boll Weevil; type: in vivo, Anthonomus grandis Boheman; settings: 48 h; 100 ppm in soil; cotton leaves after three weeks; 2 days; read-out: % Kill, Systemic Insecticide, Cotton Boll Weevil
Description: as §1, §2
The cotyledonary leaves of the cotton are clipped after three weeks and placed in glass petri dishes (90 mm. × 10 mm.) with moist filter (9 cm. Whatman No. 1) paper and ten adult boll weevils (Anthonomus grandis Boheman). The dishes are covered, placed in the holding room with constant light at 26.7°C. and 60% r.h. for 2 days, when mortality counts are made.

[1] = system: Western Potato Leafhopper; test: Western Potato Leafhopper, dipped lima bean leaf; type: in vivo, Empoasca abrupta Say; settings: 48 h, 2 days, read-out: % Kill, Western Potato Leafhopper
Source text: Western Potato Leafhopper -- Empoasca abrupta Say
A Sieva lima bean plant with the primary leaf expanded to 3 to 4 inches is dipped into a 35/65% water/acetone mixture containing 100 ppm. of test compound and set in the hood to dry. A 1-inch piece of the tip of one leaf is cut off and placed in a 4-inch petri dish with a moist filter paper in the bottom. From three to 10 second-instar nymphs are tapped from the culture plants into the test dish and rapidly covered. Mortality counts are made after 2 days at 80°F., and 50% r.h.

Malaria Mosquito = Malaria Mosquito adult test, treated slide; type: in vivo, Anopheles quadrimaculatus Say; settings: Anopheles quadrimaculatus, 24 h, adults, one day, read-out: % Kill, Malaria Mosquito
Description: Malaria Mosquito -- Anopheles quadrimaculatus Say -- Adult Test
Ten ppm. acetone solutions of test compounds are poured into wide-mouth 2-ounce jars each containing a microscope slide. The slides are removed from the test solution with forceps and laid horizontally to dry on a wide-mouth 4-ounce bottle. When dry, they are placed in the same 4-ounce bottle and 10 4-to 5-day-old mosquitoes of mixed sexes are added to each bottle. A piece of cotton gauze held on by an elastic band serves as a lid and wad of cotton soaked in 10% honey solution serves as food. Mortality counts are made after one day at 80°F., 50% r.h.

Housefly = Housefly feeding test in sugar water; type: in vivo, Musca domestica Linneaus; settings: Musca domestica; 5 ppm in sugar water; counts after 1 day and 3 days; read-out: % Kill, Housefly
Description: Housefly -- Musca domestica Linneaus
Groups of 25 adult female houseflies three to 5 days old are lightly anesthetized with CO2, placed in wide-mouthed pint mason jars, and covered with a screen cap. The test compound is a 100 ppm. 35/65% water/acetone solution. Two milliliters of this is pipetted into a 10-dram vial and diluted to 40 ml. with 10% sugar solution, giving a final concentration of 5 ppm. in sugar water. The mouth of the vial is covered with a single layer of cheesecloth, inverted and placed on the screen cap of the fly jar, so that the flies can feed on the solution through the screen. Mortality counts are made after 1 day and 3 days at 80°F., 50% r.h.

[2] = system: Boophilus microplus ticks; test: Tick larvae, simulated spray in pipette; type: in vivo; settings: Rhipicephalus microplus, 48 hours, read-out: % Kill, Ticks
Description: Ticks -- Boophilus microplus
In these tests, 20 larvae are enclosed in a pipette sealed at one end with a gauze material. A 10% acetone/water solution with the drug in it is then sucked through the pipette with a vacuum hose, thus simulating a spray system. The ticks are then held for 48 hours and mortality is determined.

Structure (SMILES)	mortality at 100 ppm (Tarnished Plant Bug) [%]	mortality at 10 ppm (Mexican Bean Beetle) [%]	mortality at 100 ppm (Mexican Bean Beetle) [%]	mortality at 1 ppm (Southern Corn Rootworm) [%]	mortality at 10 ppm (Southern Corn Rootworm) [%]	mortality at 100 ppm (Southern Corn Rootworm) [%]	mortality at 100 ppm (Southern Armyworm) [%]	mortality at 100 ppm (Cotton Boll Weevil) [%]	mortality at 10 ppm [1] [%]	mortality at 100 ppm [1] [%]	mortality at 1 ppm (Malaria Mosquito) [%]	mortality at 10 ppm (Malaria Mosquito) [%]	mortality at 5 ppm (Housefly) [%]	mortality at 100 ppm ([2]; 100 ppm) [%]	mortality at 33 ppm [2] [%]
CCOP(=O)(OCC)SC[S+]([O-])C(C)(C)C (stereo not drawn) [O,O-diethyl S-(tert-butylsulfinyl)methyl Phosphorothioate]	100	100	100	61	100	100	100	100	100	100	40	100	100	100	–
CCOP(=S)(OCC)SC[S+]([O-])C(C)(C)C (stereo not drawn) [O,O-diethyl S-(tert-butylsulfinyl)methyl phosphorodithioate, reference compound]	100	80	90	95	100	100	100	100	100	100	0	80	100	–	0
CCOP(=S)(OCC)SCS(=O)(=O)C(C)(C)C [O,O-diethyl S-(tert-butylsulfonyl)methyl Phosphorodithioate]	100	–	100	100	100	100	0	90	–	–	50	100	100	–	–
CCOP(=O)(OCC)SCS(=O)(=O)C(C)(C)C [O,O-diethyl S-(tert-butylsulfonyl)methyl Phosphorothioate]	100	70	90	0	100	100	100	100	100	100	0	50	100	–	0
